Reference: patent US20070281925A1, “USE OF SERTINDOLE FOR THE PREVENTIVE TREATMENT OF SUICIDAL BEHAVIOUR” (H. Lundbeck A/S, priority 2006, published 2007)

Assays:
[1] = system: patients with schizophrenia; assay: Sertindole Cohort Prospective (SCoP) study: fatal or non-fatal suicide attempts, sertindole vs risperidone; format: in vivo, human; conditions: for Committed or attempted suicide (rate/100 PYE): WRT period plus 30 days; for Hazard Ratio SERT as compared to RISP, committing or attempting suicide: Cox proportional hazards model adjusting for age, gender, history of suicide attempt, duration of schizophrenia; for Hazard ratio SERT/RISP, committed or attempted suicide: log-rank test, WRT plus 30 days
Excerpt: (§1) The Sertindole Cohort Prospective (SCoP) study was designed as a multi-national, multi-centre, prospective, randomized, open-label, two parallel-group, active-controlled study in human subjects with schizophrenia. The objective of the study is to compare the safety of sertindole with the safety of another standard antipsychotic drug (in this case risperidone) under normal conditions of use. In addition, the study collects information on fatal or non-fatal suicide attempts. The study was initiated in 2002 and is still ongoing.
(§2) To ensure that the study population is representative of patients with schizophrenia, only a limited number of selection criteria are imposed. In particular, patients are required to fulfil the criteria specified in the SmPCs (Core Summary of Product Characteristics) for both sertindole and risperidone; they are not to have received either sertindole or risperidone as their treatment immediately before entering the study, and they require treatment with but a single anti-schizophrenia drug product.
as §1, with “is” for “was designed as”, “multinational,” for “multi-national,”, “patients” for “human subjects”
The data in the study are reported for different periods. The Only-Randomized-Treatment-Period (ORT) covers the time the patient is receiving antipsychotic monotherapy with the randomized trial medication. However, patients can also be treated in combination with another antipsychotic if this is clinically necessary. When the patient receives an additional antipsychotic, the patient is censored and the data are reported for the Whole-Randomized-Treatment period (WRT). The primary period for reporting is the so-called Whole-Randomized-Treatment+30 period (WRT+30), which covers the time during which the patient receives randomized treatment plus 30 days after treatment discontinuation. Finally, the period during which the patient is followed even after the treatment has been stopped is called the Whole-Follow-up-Period (WFP).
as §2, with “fulfill” for “fulfil”, “SmPCs” for “SmPCs (Core Summary of Product Characteristics)”, “antipsychotic drug.” for “anti-schizophrenia drug product.”
Throughout the treatment period patients are dosed according to the treatment recommendations in their respective SmPCs. […]
Regarding attempted suicide, the analysis comprised only those events for which the investigators confirmed that the patients actually tried to commit suicide. Events such as intentional overdose and intentional self-injury were clarified by the investigators and were not included in the analysis unless the investigators confirmed that they were real suicide attempts. The included events were coded as ‘suicide attempt’ in the database.
The above definition of attempted suicide has the advantage of making it possible combine this event with completed suicide and to analyze the time until either event occurs. This can be done since all patients are randomised to start new treatment with either sertindole or risperidone.
All events occurring in the Whole Randomised Treatment (WRT) period plus 30 days were considered for analysis, up until the data cut-off. The WRT period is the period from start to stop of randomised treatment. The null hypothesis of equality of hazards between treatment groups was tested using the log-rank test. […]

[2] = system: patient population of clinical trials of atypical antipsychotics; conditions: between sertindole, olanzapine and risperidone; cited from earlier work
[3] = compared with haloperidol, fluphenazine and chlorpromazine; cited from earlier work
[4] = system: A9 dopamine neurons (the nigrostriatal pathway); conditions: cited from earlier work
[5] = system: A10 neurons (the mesolimbic and mesocortical pathways); conditions: cited from earlier work
[6] = system: α1-adrenergic receptors; conditions: cited from earlier work
[7] = system: patients with schizophrenia; assay: Twelve-month open-label study of sertindole: time to sustained response; format: in vivo, human; conditions: 4-24 mg once daily for up to one year; 358 patients
Excerpt: These findings are further corroborated by an exploratory analysis of clinical data obtained from a twelve-month open-label study ([…] et al., “Identification of Potential Predictors of Sertindole Response in Patients with Schizophrenia”, to be published). In line with the emerging consensus criteria for response to antipsychotic treatment in schizophrenia ([…] et al., Am J Psychiatry 162:441-449, March 2005), the objective of this exploratory analysis is to identify potential predictors of response to sertindole in patients with schizophrenia. The study assessed the safety and efficacy of sertindole doses (4-24 mg) administered once daily for up to one year in US patients with schizophrenia.

[8] = system: muscarinic receptors; conditions: cited from earlier work
[9] = molecular target: dopamine D2 receptors (Homo sapiens, UniProt P14416); conditions: cited from earlier work
Chain of dopamine D2 receptors (P14416 whole entry): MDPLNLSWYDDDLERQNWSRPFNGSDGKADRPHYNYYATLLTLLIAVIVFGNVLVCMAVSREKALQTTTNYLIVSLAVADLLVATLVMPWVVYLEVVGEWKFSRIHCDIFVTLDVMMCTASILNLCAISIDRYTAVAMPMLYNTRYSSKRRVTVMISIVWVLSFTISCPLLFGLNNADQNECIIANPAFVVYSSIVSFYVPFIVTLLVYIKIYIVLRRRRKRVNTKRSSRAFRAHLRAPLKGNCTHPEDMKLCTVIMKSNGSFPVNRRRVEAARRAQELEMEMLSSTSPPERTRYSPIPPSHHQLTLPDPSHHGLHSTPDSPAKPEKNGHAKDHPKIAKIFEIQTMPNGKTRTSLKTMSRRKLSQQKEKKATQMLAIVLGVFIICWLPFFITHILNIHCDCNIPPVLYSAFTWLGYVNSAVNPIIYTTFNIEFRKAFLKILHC

[10] = system: α2-adrenergic receptors; conditions: cited from earlier work
[11] = system: serotonin 5-HT2 receptors; conditions: cited from earlier work
[12] = system: histaminergic receptors; conditions: cited from earlier work

Cc1nc2n(c(=O)c1CCN1CCC(c3noc4cc(F)ccc34)CC1)CCCC2 [risperidone]
Event rate in risperidone group relative to sertindole group (times higher) ([1]; Cox proportional hazards model, data cut-off 11.1 2007): approximately 1.7 times | Committed or attempted suicide (rate/100 PYE) ([1]; as of Nov. 1, 2006): 1.15 rate/100 PYE | Committed or attempted suicide (rate/100 PYE) ([1]; as of Nov. 1, 2007): 0.92 rate/100 PYE | Event rate in risperidone group relative to sertindole group (times higher) ([1]; data cut-off 11.1 2007, unadjusted): ~1.5 times | Event rate in risperidone group relative to sertindole group (times higher) ([1]; data up until 11 Jan. 2006): ~1.5 times | Short-term (450 days) hazard functions (mortality) [2]: no obvious difference

Cc1cc2c(s1)Nc1ccccc1N=C2N1CCN(C)CC1 [olanzapine]
Short-term (450 days) hazard functions (mortality) [2]: no obvious difference

O=C1NCCN1CCN1CCC(c2cn(-c3ccc(F)cc3)c3ccc(Cl)cc23)CC1 [sertindole]
Adverse effects [3]: fewer adverse effects | Depolarization inactivation in A9 dopamine neurons [4]: does not induce depolarization inactivation | Activity in A10 neurons [5]: retains activity | Affinity for α1-adrenergic receptors [6]: high affinity | Patients achieving sustained response (CGI-S<=3 and CGI-I<=2, sustained at least 8 weeks) [7]: 125 patients | Binding to muscarinic receptors [8]: limited binding | Affinity for dopamine D2 receptors [9]: high affinity | Binding to α2-adrenergic receptors [10]: limited binding | Hazard Ratio SERT as compared to RISP, committing or attempting suicide ([1]; as of Nov. 1, 2007): approximately 0.6 | Hazard Ratio SERT as compared to RISP, committing or attempting suicide ([1]; as of Nov. 1, 2007, listed as SERT): 0.614 | Committed or attempted suicide (rate/100 PYE) ([1]; as of Nov. 1, 2006): 0.85 rate/100 PYE | Committed or attempted suicide (rate/100 PYE) ([1]; as of Nov. 1, 2007): 0.62 rate/100 PYE | Hazard ratio SERT/RISP, committed or attempted suicide ([1]; data cut-off 11.1 2007): approximately 0.7 | Hazard ratio SERT/RISP, committed or attempted suicide ([1]; data cut-off 11.1 2007, listed as SERT): 0.69 | Hazard ratio SERT/RISP, committed or attempted suicide ([1]; data up until 11 Jan. 2006): approximately 0.7 | Hazard ratio SERT/RISP, committed or attempted suicide ([1]; data up until 11 Jan. 2006, listed as SERT): 0.72 | Incidence of suicide attempts (both fatal and non-fatal) in comparison with risperidone ([1]; schizophrenic patients on maintenance dose sertindole therapy): reduced significantly | Affinity for serotonin 5-HT2 receptors [11]: high affinity | Binding to histaminergic receptors [12]: limited binding | Short-term (450 days) hazard functions (mortality) [2]: no obvious difference
